Measured values: patent US20260144788A1, “COMPOUND FOR SHP2 PROTEIN DEGRADATION AND MEDICAL USES THEREOF” (UBIX THERAPEUTICS, INC., priority 2022, published 2026)

Target: T1, SHP2 protein (Homo sapiens, UniProt Q06124)
T1 sequence (Q06124 1-593): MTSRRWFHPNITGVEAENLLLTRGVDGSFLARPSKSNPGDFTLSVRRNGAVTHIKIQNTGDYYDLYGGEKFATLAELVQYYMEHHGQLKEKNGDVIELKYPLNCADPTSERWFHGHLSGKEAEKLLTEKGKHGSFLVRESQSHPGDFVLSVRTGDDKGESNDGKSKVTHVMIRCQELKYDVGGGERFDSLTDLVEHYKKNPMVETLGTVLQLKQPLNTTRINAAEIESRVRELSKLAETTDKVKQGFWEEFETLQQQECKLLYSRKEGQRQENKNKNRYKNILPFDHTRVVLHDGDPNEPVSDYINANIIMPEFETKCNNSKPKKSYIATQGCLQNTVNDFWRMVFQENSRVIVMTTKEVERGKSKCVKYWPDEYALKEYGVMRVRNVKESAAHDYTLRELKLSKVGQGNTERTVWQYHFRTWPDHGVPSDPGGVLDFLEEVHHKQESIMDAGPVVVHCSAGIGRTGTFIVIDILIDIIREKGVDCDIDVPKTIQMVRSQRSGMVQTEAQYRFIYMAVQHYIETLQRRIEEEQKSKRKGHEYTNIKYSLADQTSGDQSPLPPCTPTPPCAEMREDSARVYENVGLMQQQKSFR
Test: Measurement of SHP2 protein degradation in MV-4-11 cells (western blotting)
Format: cell-based
Set-up: endogenous in cells
Conditions: harvested after 24 hours
In short: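 MV-4-11 cells in IMDM/5% FBS were exposed to compound at final 0.01, 0.1, 1 μM or 0.001, 0.01, 0.1 μM for 24 h, DMSO as negative control. BCA-normalised lysates were immunoblotted for SHP2 with GAPDH as loading control, read on LI-COR Odyssey.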

| SHP2% degradation (0.01 μM) [%] | SHP2% degradation (0.1 μM) [%] | Compound |
| --- | --- | --- |
| 97.7 | 99.5 | CC(=O)N[C@H](C(=O)N1C[C@H](O)C[C@H]1C(=O)NCc1ccc(-c2scnc2C)cc1O[C@H]1CC[C@H](C(=O)N2CC(Nc3nccc(Sc4cnc(N5CCC(C)(CN)CC5)cn4)c3Cl)C2)CC1)C(C)(C)C [Example 38, (2S,4R)-1-((S)-2-acetamido-3,3-dimethylbutanoyl)-N-(2-(((1R,4S)-4-(3-((4-((5-(4-(aminomethyl)-4-methylpiperidin-1-yl)pyrazin-2-yl)thio)-3-chloropyridin-2-yl)amino)azetidine-1-carbonyl)cyclohexyl)oxy)-4-(4-methylthiazol-5-yl)benzyl)-4-hydroxypyrrolidine-2-carboxamide] |
| 98.2 | 99. | CC(=O)N[C@H](C(=O)N1C[C@H](O)C[C@H]1C(=O)NCc1ccc(-c2scnc2C)cc1O[C@H]1CC[C@H](C(=O)N2CCC(Nc3nccc(Sc4cnc(N5CCC(C)(CN)CC5)cn4)c3Cl)CC2)CC1)C(C)(C)C [Example 41, (2S,4R)-1-((S)-2-acetamido-3,3-dimethylbutanoyl)-N-(2-(((1R,4S)-4-(4-((4-((5-(4-(aminomethyl)-4-methylpiperidin-1-yl)pyrazin-2-yl)thio)-3-chloropyridin-2-yl)amino)piperidine-1-carbonyl)cyclohexyl)oxy)-4-(4-methylthiazol-5-yl)benzyl)-4-hydroxypyrrolidine-2-carboxamide] |
| 67.3 | 97.6 | Cc1ncsc1-c1ccc(CNC(=O)[C@@H]2C[C@@H](O)CN2C(=O)[C@@H](NC(=O)C2(F)CC2)C(C)(C)C)c(OCCN2CCC(C(=O)N3CC(Nc4cccc(Sc5cnc(N6CCC(C)(CN)CC6)cn5)c4Cl)C3)CC2)c1 [Example 50, (2S,4R)—N-(2-(2-(4-(3-((3-((5-(4-(aminomethyl)-4-methylpiperidin-1-yl)pyrazin-2-yl)thio)-2-chlorophenyl)amino)azetidine-1-carbonyl)piperidin-1-yl)ethoxy)-4-(4-methylthiazol-5-yl)benzyl)-1-((S)-2-(1-fluorocyclopropane-1-carboxamido)-3,3-dimethylbutanoyl)-4-hydroxypyrrolidine-2-carboxamide] |
| 32.9 | 92.6 | Cc1ncsc1-c1ccc(CNC(=O)[C@@H]2C[C@@H](O)CN2C(=O)[C@@H](NC(=O)C2(F)CC2)C(C)(C)C)c(OCCN2CCC(C(=O)N3CCC(Nc4cccc(Sc5cnc(N6CCC(C)(CN)CC6)cn5)c4Cl)CC3)CC2)c1 [Example 51, (2S,4R)—N-(2-(2-(4-(4-((3-((5-(4-(aminomethyl)-4-methylpiperidin-1-yl)pyrazin-2-yl)thio)-2-chlorophenyl)amino)piperidine-1-carbonyl)piperidin-1-yl)ethoxy)-4-(4-methylthiazol-5-yl)benzyl)-1-((S)-2-(1-fluorocyclopropane-1-carboxamido)-3,3-dimethylbutanoyl)-4-hydroxypyrrolidine-2-carboxamide] |
| 20.5 | 91.9 | Cc1ncsc1-c1ccc(CNC(=O)[C@@H]2C[C@@H](O)CN2C(=O)[C@@H](NC(=O)C2(F)CC2)C(C)(C)C)c(OCCN2CCC(C(=O)N3CCN(c4nccc(Sc5cnc(N6CCC(C)(CN)CC6)cn5)c4Cl)CC3)CC2)c1 [Example 52, (2S,4R)—N-(2-(2-(4-(4-(4-((5-(4-(aminomethyl)-4-methylpiperidin-1-yl)pyrazin-2-yl)thio)-3-chloropyridin-2-yl)piperazine-1-carbonyl)piperidin-1-yl)ethoxy)-4-(4-methylthiazol-5-yl)benzyl)-1-((S)-2-(1-fluorocyclopropane-1-carboxamido)-3,3-dimethylbutanoyl)-4-hydroxypyrrolidine-2-carboxamide] |
